Laboratory results published in US20050004134A1, “Thiazole derivative and pharmaceutical use thereof” (priority 2001, published 2005).

melting point | Compound
163.5 to 165 °C | O=c1ccc(-c2sc(NCc3ccccc3)nc2-c2ccccc2)nn1Cc1ccccc1 [Example 92, 2-benzyl-6-[2-(benzylamino)-4-phenyl-1,3-thiazol-5-yl]-3(2H)-pyridazinone]
225 to 228 °C | Nc1nc(-c2ccccc2)c(-c2ccc(=O)n(Cc3ccccc3)n2)s1 [Example 92, 6-(2-Amino-4-phenyl-1,3-thiazol-5-yl)-2-benzyl-3(2H)-pyridazinone]
212 to 215 °C | C=CCn1nc(-c2sc(N)nc2-c2ccccc2)ccc1=O [Example 93, 2-Allyl-6-(2-amino-4-phenyl-1,3-thiazol-5-yl)-3(2H)-pyridazinone]
146 to 147 °C | C=CCNc1nc(-c2ccccc2)c(-c2ccc(=O)n(CC=C)n2)s1 [Example 93, 2-allyl-6-[2-(allylamino)-4-phenyl-1,3-thiazol-5-yl]-3(2H)-pyridazinone]
232 to 234 °C | CC(C)n1nc(-c2sc(NC=O)nc2-c2ccccc2)ccc1=O [Example 94, 5-(1-isopropyl-6-oxo-1,6-dihydro-3-pyridazinyl)-4-phenyl-1,3-thiazol-2-ylformamide]
198 to 199 °C | CC(C)n1nc(-c2sc(NC(=O)OC(C)(C)C)nc2-c2ccccc2)ccc1=O [Example 95, tert-butyl 5-(1-isopropyl-6-oxo-1,6-dihydro-3-pyridazinyl)-4-phenyl-1,3-thiazol-2-ylcarbamate]
192 to 194 °C | COCCNCc1ccc(C(=O)Nc2nc(-c3ccccc3)c(-c3ccc(=O)n(C(C)C)n3)s2)cc1 [Example 96, N-[5-(1-isopropyl-6-oxo-1,6-dihydro-3-pyridazinyl)-4-phenyl-1,3-thiazol-2-yl]-4-([(2-methoxyethyl)amino]methyl}benzamide]
224 to 227 °C | CC(C)n1nc(-c2sc(NC(=O)c3ccc(CN4CCN(C)CC4)cc3)nc2-c2ccccc2)ccc1=O [Example 97, N-(5-(1-Isopropyl-6-oxo-1,6-dihydro-3-pyridazinyl)-4-phenyl-1,3-thiazol-2-yl]-4-[(4-methyl-1-piperazinyl)methyl]benzamide]
157 to 158 °C | Cc1cccc(NC(=O)N(C)c2nc(-c3ccccc3)c(-c3ccc(=O)n(C(C)C)n3)s2)c1 [Example 99, N-[5-(1-isopropyl-6-oxo-1,6-dihydro-3-pyridazinyl)-4-phenyl-1,3-thiazol-2-yl]-N-methyl-N′-(3-methylphenyl)urea]
160 to 161 °C | CC(C)n1nc(-c2sc(NC(=O)Cn3ccnc3)nc2-c2ccccc2)ccc1=O [Example 102, 2-(1H-Imidazol-1-yl)-N-[5-(1-isopropyl-6-oxo-1,6-dihydro-3-pyridazinyl)-4-phenyl-1,3-thiazol-2-yl]acetamide]
144 to 145 °C | CC(C)n1nc(-c2sc(NC(=O)CNCc3ccccc3)nc2-c2ccccc2)ccc1=O [Example 103, 2-(Benzylamino)-N-[5-(1-isopropyl-6-oxo-1,6-dihydro-3-pyridazinyl)-4-phenyl-1,3-thiazol-2-yl]acetamide]
94 to 96 °C | CC(C)n1nc(-c2sc(NC(=O)CN(C)CCc3ccccn3)nc2-c2ccccc2)ccc1=O [Example 111, N-[5-(1-Isopropyl-6-oxo-1,6-dihydro-3-pyridazinyl)-4-phenyl-1,3-thiazol-2-yl]-2-{methyl[2-(2-pyridinyl)ethyl]amino}acetamide]
142 to 144 °C | CC(C)n1nc(-c2sc(NC(=O)CNCCO)nc2-c2ccccc2)ccc1=O [Example 117, 2-[(2-Hydroxyethyl)amino]-N-[5-(1-isopropyl-6-oxo-1,6-dihydro-3-pyridazinyl)-4-phenyl-1,3-thiazol-2-yl]acetamide]
155 to 157 °C | CC(C)n1nc(-c2sc(NC(=O)CN(C)CCN(C)C)nc2-c2ccccc2)ccc1=O [Example 118, 2-[(2-(Dimethylamino)ethyl)(methyl)amino]-N-[5-(1-isopropyl-6-oxo-1,6-dihydro-3-pyridazinyl)-4-phenyl-1,3-thiazol-2-yl]acetamide]
156 to 158 °C | CC(C)n1nc(-c2sc(NC(=O)CNCc3cccnc3)nc2-c2ccccc2)ccc1=O [Example 120, N-[5-(1-Isopropyl-6-oxo-1,6-dihydro-3-pyridazinyl)-4-phenyl-1,3-thiazol-2-yl]-2-[(3-pyridinylmethyl)amino]acetamide]
167 to 168 °C | COCCNCCC(=O)Nc1nc(-c2ccccc2)c(-c2ccc(=O)n(C(C)C)n2)s1 [Example 122, N-[5-(1-Isopropyl-6-oxo-1,6-dihydro-3-pyridazinyl)-4-phenyl-1,3-thiazol-2-Yl]-3-[(2-methoxyethyl)amino]propanamide]
197 to 198 °C | CC(C)n1nc(-c2sc(NC(=O)CCN3CCOCC3)nc2-c2ccccc2)ccc1=O [Example 123, N-[5-(1-Isopropyl-6-oxo-1,6-dihydro-3-pyridazinyl)-4-phenyl-1,3-thiazol-2-yl]-3-(4-morpholinyl)propanamide]

melting point | Compound
200 to 201 °C | CC(C)n1nc(-c2sc(NC(=O)CCNCc3ccccn3)nc2-c2ccccc2)ccc1=O [Example 124, N-[5-(1-Isopropyl-6-oxo-1,6-dihydro-3-pyridazinyl)-4-phenyl-1,3-thiazol-2-yl]-3-[(2-pyridinylmethyl)amino]propanamide]
189 to 190 °C | CC(C)n1nc(-c2sc(NC(=O)CN3CCCCC3)nc2-c2ccccc2)ccc1=O [Example 132, N-[5-(1 Isopropyl-6-oxo-1,6-dihydro-3-pyridazinyl)-4-phenyl-1,3-thiazol-2-yl]-2-(1-piperidinyl)acetamide]
131 to 133 °C | CC(C)n1nc(-c2sc(NC(=O)c3ccc(CN(C)CCN(C)C)cc3)nc2-c2ccccc2)ccc1=O [Example 137, 4-{[[2-(Dimethylamino)ethyl] (methyl)amino]methyl}-N-[5-(1-isopropyl-6-oxo-1,6-dihydro-3-pyridazinyl)-4-phenyl-1,3-thiazol-2-yl]benzamide]
111 to 113 °C | CC(C)n1nc(-c2sc(NC(=O)c3ccc(CNCCO)cc3)nc2-c2ccccc2)ccc1=O [Example 138, 4-{[(2-Hydroxyethyl)amino]methyl}-N-[5-(1-isopropyl-6-oxo-1,6-dihydro-3-pyridazinyl)-4-phenyl-1,3-thiazol-2-yl]benzamide]
> 250 °C | CC(C)n1nc(-c2sc(NC(=O)c3ccc(Cn4ccnc4)cc3)nc2-c2ccccc2)ccc1=O [Example 139, 4-(1H-Imidazol-1-ylmethyl)-N-[5-(1-isopropyl-6-oxo-1,6-dihydro-3-pyridazinyl)-4-phenyl-1,3-thiazol-2-yl]benzamide]
86 to 88 °C | CC(C)n1nc(-c2sc(NC(=O)c3ccc(CNCCN4CCOCC4)cc3)nc2-c2ccccc2)ccc1=O [Example 140, N-[5-(1-Isopropyl-6-oxo-1,6-dihydro-3-pyridazinyl)-4-phenyl-1,3-thiazol-2-yl]-4-({[2-(4-morpholinyl)ethyl]amino}methyl)benzamide]
158 to 160 °C | CCN(CC)CCNCc1ccc(C(=O)Nc2nc(-c3ccccc3)c(-c3ccc(=O)n(C(C)C)n3)s2)cc1 [Example 142, 4-({[2-(Diethylamino)ethyl]amino}methyl)-N-[5-(1-isopropyl-6-oxo-1,6-dihydro-3-pyridazinyl)-4-phenyl-1,3-thiazol-2-yl]benzamide]
108 to 110 °C | CC(C)n1nc(-c2sc(NC(=O)c3ccc(CNCCCN(C)C)cc3)nc2-c2ccccc2)ccc1=O [Example 143, 4-({[3-(Dimethylamino)propyl]amino}methyl)-N-[5-(1-isopropyl-6-oxo-1,6-dihydro-3-pyridazinyl)-4-phenyl-1,3-thiazol-2-yl]benzamide]
134 to 136 °C | CC(C)n1nc(-c2sc(NC(=O)c3ccc(CNCCN4CCCCC4)cc3)nc2-c2ccccc2)ccc1=O [Example 144, N-[5-(1-Isopropyl-6-oxo-1,6-dihydro-3-pyridazinyl)-4-phenyl-1,3-thiazol-2-yl]-4-({[2-(1-piperidinyl)ethyl]amino}methyl)benzamide]
153 to 154 °C | CCOCCNCc1ccc(C(=O)Nc2nc(-c3ccccc3)c(-c3ccc(=O)n(C(C)C)n3)s2)cc1 [Example 145, 4-{[(2-Ethoxyethyl)amino]methyl}-N-[5-(1-isopropyl-6-oxo-1,6-dihydro-3-pyridazinyl)-4-phenyl-1,3-thiazol-2-yl]benzamide]
172 to 174 °C | CC(C)n1nc(-c2sc(NC(=O)c3ccc(CN(C)CCc4ccccn4)cc3)nc2-c2ccccc2)ccc1=O [Example 147, N-[5-(1-Isopropyl-6-oxo-1,6-dihydro-3-pyridazinyl)-4-phenyl-1,3-thiazol-2-yl]-4-({methyl[2-(2-pyridinyl)ethyl]amino}methyl)benzamide]
220 to 222 °C | CC(=O)N1CCN(CC(=O)Nc2nc(-c3ccccc3)c(-c3ccc(=O)n(C(C)C)n3)s2)CC1 [Example 150, 2-(4-Acetyl-1-piperazinyl)-N-[5-(1-isopropyl-6-oxo-1,6-dihydro-3-pyridazinyl)-4-phenyl-1,3-thiazol-2-yl]acetamide]
139 to 141 °C | CC(C)NCc1ccc(C(=O)Nc2nc(-c3ccccc3)c(-c3ccc(=O)n(C(C)C)n3)s2)cc1 [Example 152, 4-[(Isopropylamino)methyl]-N-[5-(1-isopropyl-6-oxo-1,6-dihydro-3-pyridazinyl)-4-phenyl-1,3-thiazol-2-yl]benzamide]
> 250 °C | NC(=O)c1nc(-c2ccccc2)c(-c2ccc(=O)[nH]n2)s1 [Example 158, 5-(6-oxo-1,6-dihydro-3-pyridazinyl)-4-phenyl-1,3-thiazole-2-carboxamide]
231 to 232 °C | Cn1nc(-c2sc(C(N)=O)nc2-c2ccccc2)ccc1=O [Example 159, 5-(1-methyl-6-oxo-1,6-dihydro-3-pyridazinyl)-4-phenyl-1,3-thiazole-2-carboxamide]
231 to 232.5 °C | CCn1nc(-c2sc(C(N)=O)nc2-c2ccccc2)ccc1=O [Example 160, 5-(1-Ethyl-6-oxo-1,6-dihydro-3-pyridazinyl)-4-phenyl-1,3-thiazole-2-carboxamide]
222 to 223 °C | CC(C)n1nc(-c2sc(C(N)=O)nc2-c2ccccc2)ccc1=O [Example 161, 5-(1-Isopropyl-6-oxo-1,6-dihydro-3-pyridazinyl)-4-phenyl-1,3-thiazole-2-carboxamide]
